The structures appear in SMILES notation. A value given as a limit tells only on which side of the number the result lay.

This passage reports DC50 and Dmax results from patent publication US12427144B2, “Compounds and methods for the targeted degradation of androgen receptor” (Arvinas Operations, Inc., priority 2019, dated 2025).

For this test, the target named is T1, Androgen Receptor (AR) (Homo sapiens, UniProt P10275).
T1 construct: endogenous in cells; host or cells: VCaP
T1 sequence (P10275 1-920): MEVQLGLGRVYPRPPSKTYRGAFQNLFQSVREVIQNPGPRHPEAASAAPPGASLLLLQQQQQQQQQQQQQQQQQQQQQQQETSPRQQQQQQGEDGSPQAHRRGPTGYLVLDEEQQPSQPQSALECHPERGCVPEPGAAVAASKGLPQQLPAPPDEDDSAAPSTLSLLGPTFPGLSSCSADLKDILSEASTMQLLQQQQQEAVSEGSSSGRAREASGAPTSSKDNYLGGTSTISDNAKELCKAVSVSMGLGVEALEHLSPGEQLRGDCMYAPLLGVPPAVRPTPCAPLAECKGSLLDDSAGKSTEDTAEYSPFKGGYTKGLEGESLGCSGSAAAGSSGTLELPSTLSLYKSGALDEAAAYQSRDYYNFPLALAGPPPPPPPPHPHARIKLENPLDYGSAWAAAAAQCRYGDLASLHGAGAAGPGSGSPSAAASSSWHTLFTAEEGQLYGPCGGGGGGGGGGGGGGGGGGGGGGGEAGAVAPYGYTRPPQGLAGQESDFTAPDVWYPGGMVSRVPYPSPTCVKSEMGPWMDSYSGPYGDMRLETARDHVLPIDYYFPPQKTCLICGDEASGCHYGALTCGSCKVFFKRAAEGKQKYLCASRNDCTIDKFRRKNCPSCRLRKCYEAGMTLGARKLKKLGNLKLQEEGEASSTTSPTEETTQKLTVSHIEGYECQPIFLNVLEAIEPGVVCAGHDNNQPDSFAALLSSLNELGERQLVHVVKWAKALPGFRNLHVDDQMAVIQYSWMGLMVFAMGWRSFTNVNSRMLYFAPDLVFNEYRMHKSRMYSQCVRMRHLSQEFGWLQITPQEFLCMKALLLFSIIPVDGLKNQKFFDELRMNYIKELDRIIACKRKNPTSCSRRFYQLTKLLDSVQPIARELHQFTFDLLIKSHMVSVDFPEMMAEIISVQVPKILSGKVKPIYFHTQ
The test is described as follows: AR immunofluorescence staining, high content imager, VCaP cells. The class given is cell-based. The following applies: for DC50: AR degradation by immunofluorescence; for Dmax: maximal AR degradation. As to the method: AR Immunofluorescence Staining of Cells for the High Content Imager was performed as follows: Following treatment of the cells with compound (using the central 60 wells of a 96-well plate), media was removed by aspiration, followed by addition of 50 μL per well of 4% paraformaldehyde (PFA) in PBS supplemented with 2 mM MgCl2 and 2 mM CaCl2. Fixed cells were incubated at RT for 15 minutes. For particularly low adherence cell lines (e.g., VCaP), a 2× solution of 8% PFA was added directly to wells instead. Cells were washed once with 200 μL PBS/well. To permeabilize cells 50 μL/well of 0.1% Triton X-100 in PBS was added and incubated for 5 minutes. Cells were washed once with 200 μL PBSS/well. 100 μL/well of Licor Odyssey Blocking Buffer was added for 1 hour at 20° C. Wells were aspirated and AR antibody (1:1000 in Licor Odyssey blocking buffer; 50 μL/well; CST 5153s) was added. Plates were incubated overnight at 4° C. Plates were washed 3 times with 200 EL PBS/well. The appropriate secondary antibody was added (50 μL/well; diluted in Licor Odyssey blocking buffer) and incubated for 1 hour at RT in the dark as prepared below using Anti-rabbit FITC (1:5000; […]) and Phalloidin-Alexafluor 648 (1:500; […]). Cells were washed once with 200 μL PBS/well. 50 μL DAPI or Hoechst 33342 diluted 1:1000 in Licor Odyssey blocking buffer was added to the wells. Cells were washed 3 times with 200 μL PBS/well. The plates were covered with a clear plastic sealer and refrigerated in the dark until ready to analyze. The cells were analyzed using a Molecular Devices IXM high content imager and analyzed using Molecular Devices metaXpress software suite.

One may read the DC50 as the midpoint of the concentration-degradation curve. Read a high DC50 as degradation only at high concentration. What is called Dmax is the greatest extent of degradation seen. A low value points to shallow degradation. For the compound `COc1cc(O[C@H]2C(C)(C)[C@H](NC(=O)c3ccc(N4CCC5(CC4)CN([C@H]4C[C@H](Oc6ccc(C(=O)N[C@H]7CCC(=O)NC7=O)c(OC)c6)C4)CCO5)cc3)C2(C)C)ccc1C#N` [Compound 34, 4-[3-[9-[4-[[3-(4-cyano-3-methoxy-phenoxy)-2,2,4,4-tetramethyl-cyclobutyl]carbamoyl]phenyl]-1-oxa-4,9-diazaspiro[5.5]undecan-4-yl]cyclobutoxy]-N-[(3S)-2,6-dioxo-3-piperidyl]-2-methoxy-benzamide], the DC50 was under 1 nM and the Dmax is at least 70%.

In the case of `COc1cc(O[C@H]2C[C@H](N3CCOC4(CCN(c5ccc(C(=O)N[C@H]6C(C)(C)[C@H](Oc7cc(C)c(C#N)c(C)c7)C6(C)C)cc5)CC4)C3)C2)ccc1C(=O)N[C@H]1CCC(=O)NC1=O` [Compound 35, 4-[3-[9-[4-[[3-(4-cyano-3,5-dimethyl-phenoxy)-2,2,4,4-tetramethyl-cyclobutyl]carbamoyl]phenyl]-1-oxa-4,9-diazaspiro[5.5]undecan-4-yl]cyclobutoxy]-N-[(3S)-2,6-dioxo-3-piperidyl]-2-methoxy-benzamide], the DC50 was under 1 nM and the Dmax was at least 70%.

`CC1(C)[C@H](NC(=O)c2ccc(C#CC3CCN(C4CCN(c5ccc(C(=O)N[C@H]6CCC(=O)NC6=O)c(F)c5)CC4)CC3)cc2)C(C)(C)[C@H]1Oc1ccc(C#N)c(Cl)c1` [Compound 36, N-[(3S)-2,6-dioxopiperidin-3-yl]-2-fluoro-4-{4-[2-(4-{[(1r,3r)-3-(3-chloro-4-cyanophenoxy)-2,2,4,4-tetramethylcyclobutyl]carbamoyl}phenyl)ethynyl]-[1,4′-bipiperidin]-1′-yl}benzamide] showed a DC50 of under 1 nM and a Dmax of at least 70%.

Consider `COc1cc(O[C@H]2C(C)(C)[C@H](NC(=O)c3ccc(N4CCC(CN5CCN(c6cnc(C(=O)N[C@H]7CCC(=O)NC7=O)cn6)CC5)CC4)cc3)C2(C)C)ccc1C#N` [Compound 37, 5-[4-[[1-[4-[[3-(4-cyano-3-methoxy-phenoxy)-2,2,4,4-tetramethyl-cyclobutyl]carbamoyl]phenyl]-4-piperidyl]methyl]piperazin-1-yl]-N-[(3S)-2,6-dioxo-3-piperidyl]pyrazine-2-carboxamide], for which the DC50 was under 1 nM and the Dmax is at least 70%.

In turn, `COc1cc(O[C@H]2C(C)(C)[C@H](NC(=O)c3ccc(N4CCC(CN5CCN(c6cnc(C(=O)N[C@H]7CCC(=O)NC7=O)nc6)CC5)CC4)cc3)C2(C)C)ccc1C#N` [Compound 39, 5-(4-((1-(4-(((1r,3r)-3-(4-cyano-3-methoxyphenoxy)-2,2,4,4-tetramethylcyclobutyl)carbamoyl)phenyl)piperidin-4-yl)methyl)piperazin-1-yl)-N—((S)-2,6-dioxopiperidin-3-yl)pyrimidine-2-carboxamide] showed a DC50 of under 1 nM and a Dmax of at least 70%.

For `COc1cc(O[C@H]2C(C)(C)[C@H](NC(=O)c3ccc(N4CCC(CN5CCN(c6ccc(C(=O)N[C@H]7CCC(=O)NC7=O)nc6)CC5)CC4)cc3)C2(C)C)ccc1C#N` [Compound 40, 5-[4-[[1-[4-[[3-(4-cyano-3-methoxy-phenoxy)-2,2,4,4-tetramethyl-cyclobutyl]carbamoyl]phenyl]-4-piperidyl]methyl]piperazin-1-yl]-N-[(3S)-2,6-dioxo-3-piperidyl]pyridine-2-carboxamide], the half-maximal degradation concentration (DC50) was under 1 nM and the Dmax is at least 70%.

`Cc1cc(O[C@H]2C(C)(C)[C@H](NC(=O)c3ccc(N4CCC(CN5CCN(c6ccc(C(=O)N[C@H]7CCC(=O)NC7=O)nc6)CC5)CC4)cc3)C2(C)C)cc(C)c1C#N` [Compound 41, 5-[4-[[1-[4-[[3-(4-cyano-3,5-dimethyl-phenoxy)-2,2,4,4-tetramethyl-cyclobutyl]carbamoyl]phenyl]-4-piperidyl]methyl]piperazin-1-yl]-N-[(3S)-2,6-dioxo-3-piperidyl]pyridine-2-carboxamide] registered a DC50 of under 1 nM and a Dmax of at least 70%.

Consider `COc1cc(O[C@H]2C(C)(C)[C@H](NC(=O)c3ccc(N4CCC(CN5CCN(c6ccc(C(=O)N[C@H]7CCC(=O)NC7=O)cn6)CC5)CC4)cc3)C2(C)C)ccc1C#N` [Compound 42, N-[(3S)-2,6-dioxopiperidin-3-yl]-6-(4-{[1-(4-{[(1r,3r)-3-(4-cyano-3-methoxyphenoxy)-2,2,4,4-tetramethylcyclobutyl]carbamoyl}phenyl)piperidin-4-yl]methyl}piperazin-1-yl)pyridine-3-carboxamide], for which the DC50 is under 1 nM and the Dmax was at least 70%.

`COc1cc(O[C@H]2C(C)(C)[C@H](NC(=O)c3ccc(N4CCO[C@H](CN(C(C)C)[C@H]5C[C@@H](Oc6ccc(C(=O)N[C@H]7CCC(=O)NC7=O)c(F)c6)C5)C4)cc3)C2(C)C)ccc1C#N` [Compound 43, 4-[(2R)-2-([isopropyl[(1r,3r)-3-(4-[[(3S)-2,6-dioxopiperidin-3-yl]carbamoyl]-3-fluorophenoxy)cyclobutyl]amino]methyl)morpholin-4-yl]-N-[(1r,3r)-3-(4-cyano-3-methoxyphenoxy)-2,2,4,4-tetramethylcyclobutyl]benzamide]: the DC50 is under 1 nM and the Dmax was at least 70%.

`COc1cc(O[C@H]2C(C)(C)[C@H](NC(=O)c3ccc(N4CCO[C@@H](CN(C(C)C)[C@H]5C[C@H](Oc6ccc(C(=O)N[C@H]7CCC(=O)NC7=O)c(F)c6)C5)C4)cc3)C2(C)C)ccc1C#N` [Compound 44, 4-[(2S)-2-([isopropyl[(1R,3R)-3-(4-[[(3S)-2,6-dioxopiperidin-3-yl]carbamoyl]-3-fluorophenoxy)cyclobutyl]amino]methyl)morpholin-4-yl]-N-[(1R,3R)-3-(4-cyano-3-methoxyphenoxy)-2,2,4,4-tetramethylcyclobutyl]benzamide] returned a DC50 of under 1 nM and a Dmax of at least 70%.

With `COCCN(C[C@@H]1CN(c2ccc(C(=O)N[C@H]3C(C)(C)[C@H](Oc4cc(C)c(C#N)c(C)c4)C3(C)C)cc2)CCO1)[C@H]1C[C@@H](Oc2ccc(C(=O)N[C@H]3CCC(=O)NC3=O)c(F)c2)C1` [Compound 45, 4-[(2R)-2-{[(2-methoxyethyl)[(1r,3r)-3-(4-{[(3S)-2,6-dioxopiperidin-3-yl]carbamoyl}-3-fluorophenoxy)cyclobutyl]amino]methyl}morpholin-4-yl]-N-[(1r,3r)-3-(4-cyano-3,5-dimethylphenoxy)-2,2,4,4-tetramethylcyclobutyl]benzamide], the DC50 was under 1 nM and the Dmax is at least 70%.

The compound `Cc1cc(O[C@H]2C(C)(C)[C@H](NC(=O)c3ccc(N4CCC(CN5CCN(c6ccc(C(=O)N[C@H]7CCC(=O)NC7=O)cn6)CC5)CC4)cc3)C2(C)C)cc(C)c1C#N` [Compound 46] returned a DC50 of under 1 nM and a Dmax of at least 70%.

`Cc1cc(O[C@H]2C(C)(C)[C@H](NC(=O)c3ccc(N4CCO[C@H](CN(C(C)C)[C@H]5C[C@@H](Oc6ccc(C(=O)N[C@H]7CCC(=O)NC7=O)c(F)c6)C5)C4)cc3)C2(C)C)cc(C)c1C#N` [Compound 47, 4-[(2R)-2-{[(propan-2-yl)[(1r,3r)-3-(4-{[(3S)-2,6-dioxopiperidin-3-yl]carbamoyl}-3-fluorophenoxy)cyclobutyl]amino]methyl}morpholin-4-yl]-N-[(1r,3r)-3-(4-cyano-3,5-dimethylphenoxy)-2,2,4,4-tetramethylcyclobutyl]benzamide] yielded a DC50 of under 1 nM and a maximal degradation (Dmax) of at least 70%.
